# Biological target: T1, Human HPK1, catalytic domain (Homo sapiens, UniProt Q92918)
# T1 sequence (Q92918 1-346): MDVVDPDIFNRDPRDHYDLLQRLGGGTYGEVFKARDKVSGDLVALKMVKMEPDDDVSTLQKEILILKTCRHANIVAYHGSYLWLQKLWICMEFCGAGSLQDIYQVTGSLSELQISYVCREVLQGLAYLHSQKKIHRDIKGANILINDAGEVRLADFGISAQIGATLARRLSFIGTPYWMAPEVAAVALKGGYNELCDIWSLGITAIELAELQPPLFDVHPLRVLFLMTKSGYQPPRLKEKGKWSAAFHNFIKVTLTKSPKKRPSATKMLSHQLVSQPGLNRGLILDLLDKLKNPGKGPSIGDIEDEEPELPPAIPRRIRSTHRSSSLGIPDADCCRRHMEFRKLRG
# Experiment: HPK1-SLP76 TR-FRET Assay
# Assay type: biochemical
# Conditions: 75 pM HPK1, ATP 10 uM, SLP76 10 nM, 30 min pre-incubation, 60 min reaction
row,IC50 [nM],SMILES
1,9.67,"COc1cc2c(cc1Nc1ncc3ccc(-c4cncc(C)c4)cc3n1)CNCC2 [Compound 1-41, N-(6-methoxy-1,2,3,4-tetrahydroisoquinolin-7-yl)-7-(5-methylpyridin-3-yl)quinazolin-2-amine]"
2,0.105,"CCS(=O)(=O)Cc1ccc(Nc2ncc3c(N)c(F)c(-c4cnc5c(c4C)NCC(C)O5)cc3n2)c(F)c1 (single isomer, unassigned) [Compound 2-125, (R or S)-7-(3,8-dimethyl-2,3-dihydro-1H-pyrido[2,3-b][1,4]oxazin-7-yl)-N2-(4-((ethylsulfonyl)methyl)-2-fluorophenyl)-6-fluoroquinazoline-2,5-diamine]"
3,138,"COc1cc2c(cc1Nc1ncc3ccc(-c4ccc5c(c4)OCO5)cc3n1)CNCC2 [Compound 1-71, 7-(2H-1,3-benzodioxol-5-yl)-N-(6-methoxy-1,2,3,4-tetrahydroisoquinolin-7-yl)quinazolin-2-amine]"
4,7.7,"COc1cc2c(cc1Nc1ncc3ccc(-c4cnn(CCO)c4)cc3n1)CN(C)CC2 [Compound 1-13, 2-(4-{2-[(6-methoxy-2-methyl-1,2,3,4-tetrahydroisoquinazolin-7-yl)amino]quinazolin-7-yl}-1H-pyrazol-1-yl)ethan-1-ol]"
5,55.3,"COc1cc2c(cc1Nc1ncc3ccc(-c4cncc(C(C)(C)O)c4)cc3n1)CN(C)CC2 [Compound 1-14, 2-(5-{2-[(6-methoxy-2-methyl-1,2,3,4-tetrahydroisoquinolin-7-yl)amino]quinazolin-7-yl}pyridin-3-yl)propan-2-ol]"
6,0.037,"CS(=O)(=O)Cc1ccc(Nc2ncc3c(N)c(F)c(-c4cnc5c(c4Cl)NCCO5)cc3n2)cc1 [Compound 2-123, 7-(8-chloro-2,3-dihydro-1H-pyrido[2,3-b][1,4]oxazin-7-yl)-6-fluoro-N2-(4-((methylsulfonyl)methyl)phenyl)quinazoline-2,5-diamine]"
7,0.104,"COc1cc(CS(=O)(=O)C(C)C)ccc1Nc1ncc2c(N)c(F)c(-c3cnc4c(c3C)NCCO4)cc2n1 [Compound 2-168, 6-fluoro-N~2~-(2-methoxy-4-{[(propan-2-yl)sulfonyl]methyl}phenyl)-7-(8-methyl-2,3-dihydro-1H-pyrido[2,3-b][1,4]oxazin-7-yl)quinazoline-2,5-diamine]"
8,0.816,"Cc1c(-c2c(F)c(N)c3cnc(Nc4ccc5c(c4)CN(C(C)C)CC5)nc3c2Cl)cnc2c1NCCO2 [Compound 2-112, 8-chloro-6-fluoro-N2-(2-isopropyl-1,2,3,4-tetrahydroisoquinolin-7-yl)-7-(8-methyl-2,3-dihydro-1H-pyrido[2,3-b][1,4]oxazin-7-yl)quinazoline-2,5-diamine]"
9,2.78,"Cc1c(-c2c(F)c(N)c3cnc(Nc4ccc(CS(=O)(=O)C5CC5)cc4)nc3c2Cl)cnc2c1NCCO2 [Compound 2-132, 8-chloro-N2-(4-((cyclopropylsulfonyl)methyl)phenyl)-6-fluoro-7-(8-methyl-2,3-dihydro-1H-pyrido[2,3-b][1,4]oxazin-7-yl)quinazoline-2,5-diamine]"
10,0.149,"CC(=O)N1CCCC1c1ccc(Nc2ncc3c(N)c(F)c(-c4cnc5c(c4C)NCCO5)cc3n2)cc1 (single isomer, unassigned) [Compound 2-28, (R or S)-1-[2-(4-{[5-amino-6-fluoro-7-(8-methyl-2,3-dihydro-1H-pyrido[2,3-b][1,4]oxazin-7-yl)quinazolin-2-yl]amino}phenyl)pyrrolidin-1-yl]ethan-1-one]"
11,0.0753,"Cc1c(-c2cc3nc(Nc4ccc(C5CCN(C)C5=O)cc4)ncc3c(N)c2F)cnc2c1NCCO2 (single isomer, unassigned) [Compound 2-147, (R or S)-3-(4-{[5-amino-6-fluoro-7-(8-methyl-2,3-dihydro-1H-pyrido[2,3-b][1,4]oxazin-7-yl)quinazolin-2-yl]amino}phenyl)-1-methylpyrrolidin-2-one]"
12,180,"COc1cc2c(cc1Nc1ncc3ccc(N[C@H]4CCC[C@@H]4O)cc3n1)CN(C)CC2 [Compound 3-58, (1S,2S)-2-({2-[(6-methoxy-2-methyl-1,2,3,4-tetrahydroiso-quinolin-7-yl)amino]quinazolin-7-yl}amino)cyclopentan-1-ol]"
13,179,"COc1cc2c(cc1Nc1ncc3ccc(-c4cc(C)ccc4N4CCOC4=O)cc3n1)CN(C)CC2 [Compound 1-11, 3-(2-{2-[(6-methoxy-2-methyl-1,2,3,4-tetrahydroisoquinolin-7-yl)amino]quinazolin-7-yl}-4-methylphenyl)-1,3-oxazolidin-2-one]"
14,0.101,"COc1cc2c(cc1Nc1ncc3c(N)c(F)c(-c4cnc5c(c4C)NCCO5)cc3n1)C(C)N(C)CC2 (single isomer, unassigned) [Compound 2-36, (S or R)-6-fluoro-N^2-(6-methoxy-1,2-dimethyl-1,2,3,4-tetrahydroisoquinolin-7-yl)-7-(8-methyl-2,3-dihydro-1H-pyrido[2,3-b][1,4]oxazin-7-yl)quinazoline-2,5-diamine]"
15,22.5,"COc1cc2c(cc1Nc1ncc3ccc(Nc4cccc(C#N)n4)cc3n1)CN(C)CC2 [Compound 3-27, 6-({2-[(6-methoxy-2-methyl-1,2,3,4-tetrahydroisoquinolin-7-yl)amino]quinazolin-7-yl}-amino)-pyridine-2-carbonitrile]"
16,0.126,"Cc1c(-c2cc3nc(Nc4ccc5c(c4)CN(C)CC5)ncc3c(N)c2F)cnc2nc[nH]c12 [Compound 2-162, 6-fluoro-7-(7-methyl-1H-imidazo[4,5-b]pyridin-6-yl)-N~2~-(2-methyl-1,2,3,4-tetrahydroisoquinolin-7-yl)quinazoline-2,5-diamine]"
17,520,"COCC1CN(c2ccc3cnc(Nc4cc5c(cc4OC)CCN(C)C5)nc3c2)C1 [Compound 3-68, 7-[3-(methoxymethyl)azetidin-1-yl]-N-(6-methoxy-2-methyl-1,2,3,4-tetrahydroisoquinolin-7-yl)quinazolin-2-amine]"
18,24.6,"COc1cc2c(cc1Nc1ncc3c(N)c(F)c(-c4cnc5ncsc5c4)cc3n1)CN(C)CC2 [Compound 2-47, 6-fluoro-N~2~-(6-methoxy-2-methyl-1,2,3,4-tetrahydroisoquinolin-7-yl)-7-([1,3]thiazolo[4,5-b]pyridin-6-yl)quinazoline-2,5-diamine]"
19,42.7,"COc1cc2c(cc1Nc1ncc3ccc(-c4cnc(C(C)(C)O)s4)cc3n1)CN(C)CC2 [Compound 1-15, 2-(5-{2-[(6-methoxy-2-methyl-1,2,3,4-tetrahydroisoquinolin-7-yl)amino]quinazolin-7-yl}-1,3-thiazol-2-yl)propan-2-ol]"
20,156,"COc1cc2c(cc1Nc1ncc3ccc(-c4cccc(C(C)(C)N)c4)cc3n1)CNCC2 [Compound 1-89, 7-[3-(2-aminopropan-2-yl)phenyl]-N-(6-methoxy-1,2,3,4-tetrahydroisoquinolin-7-yl)quinazolin-2-amine]"
21,487,COc1c(Nc2ncc3c(N)c(F)c(-c4cnc5c(c4C)NCCO5)cc3n2)ccc2c1CCNC(=O)C2 [Compound 2-21]
22,0.532,"CNC(=O)C(F)(F)c1ccc(Nc2ncc3cc(F)c(-c4cnc5c(c4C)NCCO5)cc3n2)cc1 [Compound 1-122, 2,2-difluoro-2-(4-{[6-fluoro-7-(8-methyl-2,3-dihydro-1H-pyrido[2,3-b][1,4]oxazin-7-yl)quinazolin-2-yl]amino}phenyl)-N-methylacetamide]"
23,204,"COc1cc2c(cc1Nc1ncc3ccc(NCC4=NS(=O)(=O)c5cc(C)ccc5N4)cc3n1)CN(C)CC2 [Compound 3-18, 3-[({2-[(6-methoxy-2-methyl-1,2,3,4-tetrahydroisoquinolin-7-yl)amino]quinazolin-7-yl}-amino)methyl]-7-methyl-1lambda~6~,2,4-benzothia-diazine-1,1(4H)-dione]"
24,0.204,"COc1cc2c(cc1Nc1ncc3c(N)c(F)c(-c4cnc5c(c4C)NCCO5)c(Cl)c3n1)CN(C(C)C)CC2 [Compound 2-102, (+ or −)-8-chloro-6-fluoro-N~2~-[6-methoxy-2-(propan-2-yl)-1,2,3,4-tetrahydroisoquinolin-7-yl]-7-(8-methyl-2,3-dihydro-1H-pyrido[2,3-b][1,4]oxazin-7-yl)quinazoline-2,5-diamine]"
25,57.1,"COc1cc2c(cc1Nc1ncc3ccc(Nc4ccc5c(c4)N(C(C)=O)CC5)cc3n1)CN(C)CC2 [Compound 3-32, 1-[6-({2-[(6-methoxy-2-methyl-1,2,3,4-tetrahydroisoquinolin-7-yl)amino]quinazolin-7-yl}-amino)-2,3-dihydro-1H-indol-1-yl]ethan-1-one]"
26,0.0831,"Cc1c(-c2cc3nc(Nc4ccc(C5(S(C)(=O)=O)CC5)cc4)ncc3c(N)c2F)cnc2c1NCCO2 [Compound 2-148, 6-fluoro-N~2~-{4-[1-(methanesulfonyl)cyclo-propyl]phenyl}-7-(8-methyl-2,3-dihydro-1H-pyrido[2,3-b][1,4]oxazin-7-yl)quinazoline-2,5-diamine]"
27,0.112,"CC(=O)N1CCCc2cc(Nc3ncc4c(N)c(F)c(-c5cnc6c(c5C)NCCO6)cc4n3)ccc21 [Compound 2-7, 1-[6-{[5-amino-6-fluoro-7-(8-methyl-2,3-dihydro-1H-pyrido[2,3-b][1,4]oxazin-7-yl)quinazolin-2-yl]amino}-3,4-dihydroquinolin-1(2H)-yl]ethan-1-one]"
28,0.0248,"Cc1c(-c2cc3nc(Nc4ccc5c(c4)C4CCC5N4C)ncc3c(N)c2F)cnc2c1NCCO2 (stereo not shown) [Compound 2-121, 6-fluoro-7-(8-methyl-2,3-dihydro-1H-pyrido[2,3-b][1,4]oxazin-7-yl)-N~2~- (9-methyl-1,2,3,4-tetrahydro-1,4-epiminonaphthalen-6-yl)quinazoline-2,5-diamine]"

# Source: patent publication US20230399341A1, “7-PHENYL SUBSTITUTED 2-AMINOQUINAZOLINE INHIBITORS OF HPK1” (MERCK SHARP & DOHME LLC, priority 2020, published 2023)
